According to ChEMBL document CHEMBL1201862, “PubChem BioAssay data set” (2004):
Activity calls are given as the source filed them.

Experiments:
[1] = molecular target: T1, Heat shock factor protein 1 (Mus musculus, UniProt P38532); experiment: HSF1 potentiators in luciferase reporter cells, confirmation, cell-based, NIH3T3, luminescence, dose retest (AID 435004); assay type: functional;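 also: stress induced by proteasome inhibitor MG132 added 30 min after compound; luciferase reporter driven by HSF1 response element in NIH3T3 cells; actives raise luminescence as potentiators of the MG132 stress response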
T1 sequence (P38532 whole entry): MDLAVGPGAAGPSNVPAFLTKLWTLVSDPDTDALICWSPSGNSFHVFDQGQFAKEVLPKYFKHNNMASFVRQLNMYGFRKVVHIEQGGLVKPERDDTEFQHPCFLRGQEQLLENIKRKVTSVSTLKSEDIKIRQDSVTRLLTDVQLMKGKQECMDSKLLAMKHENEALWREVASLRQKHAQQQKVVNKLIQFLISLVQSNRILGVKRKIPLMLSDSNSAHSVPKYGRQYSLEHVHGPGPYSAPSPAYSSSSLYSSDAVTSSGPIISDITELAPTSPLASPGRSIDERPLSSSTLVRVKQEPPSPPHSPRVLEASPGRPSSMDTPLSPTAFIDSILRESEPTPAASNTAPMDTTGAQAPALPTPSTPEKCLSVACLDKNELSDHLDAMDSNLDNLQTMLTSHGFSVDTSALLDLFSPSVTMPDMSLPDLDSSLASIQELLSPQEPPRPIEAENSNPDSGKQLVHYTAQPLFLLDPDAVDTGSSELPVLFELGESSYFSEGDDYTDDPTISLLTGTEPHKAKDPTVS

Cytochrome P450 2D6 = Cytochrome P450 2D6 (Homo sapiens, UniProt P10635);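 also: CYP2D6 member of a cytochrome P450 panel assay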
Cytochrome P450 2D6, sequence (P10635 whole entry): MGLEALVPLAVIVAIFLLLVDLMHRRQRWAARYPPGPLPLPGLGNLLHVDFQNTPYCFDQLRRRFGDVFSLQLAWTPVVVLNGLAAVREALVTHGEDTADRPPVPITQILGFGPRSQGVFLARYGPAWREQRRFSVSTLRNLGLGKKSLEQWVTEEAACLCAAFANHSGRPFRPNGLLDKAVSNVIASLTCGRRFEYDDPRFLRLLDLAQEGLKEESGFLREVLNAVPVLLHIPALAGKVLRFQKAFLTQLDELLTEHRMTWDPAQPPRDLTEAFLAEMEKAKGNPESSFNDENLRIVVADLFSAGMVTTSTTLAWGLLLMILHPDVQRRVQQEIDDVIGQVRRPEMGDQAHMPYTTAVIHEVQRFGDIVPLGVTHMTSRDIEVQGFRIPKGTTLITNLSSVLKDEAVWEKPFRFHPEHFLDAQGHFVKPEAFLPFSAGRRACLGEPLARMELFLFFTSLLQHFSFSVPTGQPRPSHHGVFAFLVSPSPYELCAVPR

Cytochrome P450 2C9 = Cytochrome P450 2C9 (Homo sapiens, UniProt P11712)
Cytochrome P450 2C9, sequence (P11712 whole entry): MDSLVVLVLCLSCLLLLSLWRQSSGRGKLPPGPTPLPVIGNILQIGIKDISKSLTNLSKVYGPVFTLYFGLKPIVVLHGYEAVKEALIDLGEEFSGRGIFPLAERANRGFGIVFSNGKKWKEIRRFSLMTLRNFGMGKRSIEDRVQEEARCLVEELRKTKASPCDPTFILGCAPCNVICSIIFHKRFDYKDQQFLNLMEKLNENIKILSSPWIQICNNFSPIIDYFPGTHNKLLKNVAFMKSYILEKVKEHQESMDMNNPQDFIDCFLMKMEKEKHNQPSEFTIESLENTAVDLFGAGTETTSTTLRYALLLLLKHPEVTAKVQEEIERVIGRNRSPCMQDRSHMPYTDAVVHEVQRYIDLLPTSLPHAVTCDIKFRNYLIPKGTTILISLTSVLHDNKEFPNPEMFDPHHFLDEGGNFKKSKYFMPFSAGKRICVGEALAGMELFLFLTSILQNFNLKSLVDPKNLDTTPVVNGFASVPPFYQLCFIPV

[2] = molecular target: T2, Rac GTPase-activating protein 1 (Homo sapiens, UniProt Q9H0H5); experiment: MgcRacGAP GTPase-activating activity inhibitors, confirmation, biochemical, ADP Hunter fluorescence, primary and confirmatory (AID 624330); assay type: functional
T2 sequence (Q9H0H5 whole entry): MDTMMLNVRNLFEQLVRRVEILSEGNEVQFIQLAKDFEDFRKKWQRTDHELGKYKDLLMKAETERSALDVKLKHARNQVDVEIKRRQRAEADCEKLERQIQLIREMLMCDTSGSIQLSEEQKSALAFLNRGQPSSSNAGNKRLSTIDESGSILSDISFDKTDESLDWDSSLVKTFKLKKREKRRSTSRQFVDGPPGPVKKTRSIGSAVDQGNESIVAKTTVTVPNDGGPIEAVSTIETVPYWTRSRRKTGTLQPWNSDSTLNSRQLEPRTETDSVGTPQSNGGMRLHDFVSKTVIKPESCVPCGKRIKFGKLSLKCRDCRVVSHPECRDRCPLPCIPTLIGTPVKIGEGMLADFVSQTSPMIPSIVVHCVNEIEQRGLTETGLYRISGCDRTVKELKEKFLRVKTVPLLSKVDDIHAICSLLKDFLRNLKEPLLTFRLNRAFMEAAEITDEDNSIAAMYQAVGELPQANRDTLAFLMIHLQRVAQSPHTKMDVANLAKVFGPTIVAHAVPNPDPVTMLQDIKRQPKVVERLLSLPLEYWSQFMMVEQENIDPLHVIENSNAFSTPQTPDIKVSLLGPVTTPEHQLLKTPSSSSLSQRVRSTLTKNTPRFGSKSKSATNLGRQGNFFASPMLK

[3] = HEp-2 cell cytotoxicity, dose response, cytotoxicity control for RSV inhibitor project, HTS (AID 2410); assay type: functional; conditions: human respiratory syncytial virus
[4] = molecular target: T1, Heat shock factor protein 1; experiment: inhibition of MG132-induced HSE-luciferase signal, confirmation, cell-based, NIH3T3, luminescence, dose retest (AID 2382); assay type: functional;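 also: NIH3T3 fibroblasts with HSF1-driven luciferase reporter stressed by proteasome inhibitor MG132; luminescence from HSF1-driven luciferase expression after 8 hours of MG132 stress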
[5] = system: Streptococcus sp. 'group A'; experiment: growth inhibition of control SK(-) GAS strain, dose response, counter-screen for streptokinase expression inhibitor project, luminescence, kanamycin, BacTiterGlo, confirmation (AID 1900); assay type: functional, organism-based
Streptococcus = experiment: Group A Streptococcus viability loss, dose response, counter-screen for streptokinase expression inhibitor project, luminescence, BacTiterGlo (AID 1915); assay type: functional, organism-based;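 also: potency for reduction of bacterial viability or growth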
[6] = molecular target: T3, Corticotropin-releasing factor receptor 2/Corticotropin-releasing factor-binding protein (Homo sapiens, UniProt P24387+Q13324); experiment: activators of CRF receptor 2 with binding protein – uHTS hits, confirmation (AID 602473); assay type: functional; conditions: read-out: EC50_Mean
T3 sequence (Q13324 whole entry): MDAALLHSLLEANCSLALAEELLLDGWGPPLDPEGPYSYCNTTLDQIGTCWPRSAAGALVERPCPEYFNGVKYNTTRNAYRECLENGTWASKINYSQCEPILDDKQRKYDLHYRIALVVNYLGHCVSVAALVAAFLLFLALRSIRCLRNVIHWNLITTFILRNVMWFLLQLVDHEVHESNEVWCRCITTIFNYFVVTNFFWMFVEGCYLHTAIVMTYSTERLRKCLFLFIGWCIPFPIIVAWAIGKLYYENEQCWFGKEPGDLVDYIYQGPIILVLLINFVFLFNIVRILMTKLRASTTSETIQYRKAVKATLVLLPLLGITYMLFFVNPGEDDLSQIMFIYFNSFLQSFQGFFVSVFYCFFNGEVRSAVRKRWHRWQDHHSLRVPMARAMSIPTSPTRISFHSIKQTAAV
T3 sequence (P24387 whole entry): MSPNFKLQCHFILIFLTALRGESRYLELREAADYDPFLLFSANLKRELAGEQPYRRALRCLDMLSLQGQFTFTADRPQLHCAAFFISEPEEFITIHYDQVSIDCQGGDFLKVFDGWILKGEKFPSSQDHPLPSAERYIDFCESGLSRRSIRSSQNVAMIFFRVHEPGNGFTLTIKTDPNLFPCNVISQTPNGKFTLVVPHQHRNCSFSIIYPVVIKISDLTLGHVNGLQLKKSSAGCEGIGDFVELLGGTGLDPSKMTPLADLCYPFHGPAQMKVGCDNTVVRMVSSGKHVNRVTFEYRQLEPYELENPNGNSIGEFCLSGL

Cytochrome P450 2C19 = Cytochrome P450 2C19 (Homo sapiens, UniProt P33261); experiment: Cytochrome panel assay with activity outcomes. Panel member name: p450-cyp2c19 Compounds with AC50 equal or less than 10 uM are considered active; assay type: functional; conditions: read-out: AC50
Cytochrome P450 2C19, sequence (P33261 whole entry): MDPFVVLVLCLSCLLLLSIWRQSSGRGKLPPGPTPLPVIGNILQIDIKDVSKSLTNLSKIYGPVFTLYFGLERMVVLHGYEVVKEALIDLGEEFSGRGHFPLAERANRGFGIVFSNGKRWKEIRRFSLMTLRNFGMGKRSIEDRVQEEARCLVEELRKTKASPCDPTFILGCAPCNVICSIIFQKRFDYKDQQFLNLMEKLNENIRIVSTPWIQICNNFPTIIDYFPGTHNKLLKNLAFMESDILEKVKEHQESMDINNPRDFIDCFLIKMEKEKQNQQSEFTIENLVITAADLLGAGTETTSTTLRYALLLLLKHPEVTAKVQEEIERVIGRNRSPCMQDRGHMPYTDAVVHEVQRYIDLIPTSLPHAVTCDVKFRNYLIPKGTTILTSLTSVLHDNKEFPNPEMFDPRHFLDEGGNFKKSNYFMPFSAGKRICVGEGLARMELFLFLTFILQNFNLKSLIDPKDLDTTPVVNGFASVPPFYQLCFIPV

Cc1cc(/C=C(/C#N)c2cccc(Cl)c2)c(C)n1C
EC50 [1]: > 260 µM (inactive)

Cc1ccc(OCC(=O)N2CCN(c3ccc([N+](=O)[O-])c(N4CCOCC4)c3)CC2)cc1
AC50 (Cytochrome P450 2D6): 12.6 µM (inconclusive)

CCCC[C@@H]1C[C@H]1C(NC(=O)Cc1ccccc1)c1ccc(Cl)cc1 (stereo partly drawn)
AC50 (Cytochrome P450 2D6): 7.94 µM (inconclusive)
AC50 (Cytochrome P450 2C9): 1.26 µM (inconclusive)

Oc1ccc(N2CCN(C(c3cccs3)c3nnnn3CCc3ccccc3)CC2)cc1 (stereo not drawn)
IC50 [2]: 47.3 µM (active)

Cc1c(C)c2ccc(OS(C)(=O)=O)c(C)c2oc1=O
CC50 [3]: > 50 µM (active)

COc1ccc(N2CCN(c3ncccc3C#N)CC2)cc1
IC50 [2]: 157 µM (active)

CCCCNCCOCCOc1ccccc1-c1ccccc1
EC50 [4]: > 195 µM (not active)

CC(C)[C@H](N)c1nnc(SC/C=C/c2ccccc2)o1
AC50 (Cytochrome P450 2D6): 35.5 µM (inconclusive)
AC50 (Cytochrome P450 2C9): 0.0562 µM (inconclusive)

Cc1ccc(C(=O)Nc2ccc3c(c2)C(=O)NC3=O)cc1
EC50 [4]: > 195 µM (not active)

CC(=O)Nc1ccc(-c2nnn(CC(=O)Nc3ccc4c(c3)OCO4)n2)cc1Cl
EC50 [4]: > 195 µM (not active)

COc1cccc(Nc2nc(N)nc(C(F)(F)F)n2)c1
CC50 [3]: 20.4 µM (active)

COC(=O)[C@@]1(Cc2ccc(OC)cc2)[C@H]2c3cc(C(=O)N4CCCC4)n(Cc4cc(C)n(C)n4)c3C[C@H]2CN1C(=O)c1ccccc1
AC50 (Cytochrome P450 2C9): 12.6 µM (inconclusive)

O=[N+]([O-])c1cc([N+](=O)[O-])c(N2CCOCC2)cc1NCc1ccccc1
EC50 [1]: > 260 µM (inactive)

O=C1CN(C(=O)COc2c(Cl)cccc2Cl)c2ccccc2N1
EC50 [4]: > 195 µM (not active)

CCOC(=O)c1cnc2ccc(C(=O)OC)cc2c1NCCCN1CCOCC1
EC50 [4]: > 195 µM (not active)

COc1cccc(NC(=O)CCSc2nnc3scc(-c4ccccc4)n23)c1
EC50 [4]: > 195 µM (not active)

Cc1ccc(C(=O)NC(=S)NNC(=O)COc2ccccc2C)cc1
EC50 [5]: 0.138 µM (active)
EC50 (Streptococcus): 0.555 µM (active)
EC50 [6]: 10.6 µM (active)

CCCn1nc2cc(C(=O)NCc3ccc4c(c3)OCO4)ccc2c1OCC
AC50 (Cytochrome P450 2C19): 14.1 µM (inconclusive)
AC50 (Cytochrome P450 2C9): 10 µM (inconclusive)

CCc1ccc(-c2nc(C[S+]([O-])CC(=O)NCc3cccnc3)c(C)o2)cc1 (stereo not drawn)
EC50 [4]: > 195 µM (not active)

COc1ccc(C(=O)N2CCN(CCCc3ccccc3)CC2)cc1OC
IC50 [2]: 123 µM (active)

Cc1cc(Oc2ccc(-c3ccccc3)cc2)n2ncnc2n1
IC50 [2]: 22.7 µM (active)

Nc1nc(SC/C=C\c2ccccc2)c2nc[nH]c2n1
AC50 (Cytochrome P450 2D6): 3.16 µM (inconclusive)
AC50 (Cytochrome P450 2C9): 3.98 µM (inconclusive)

CCc1c(O)n(-c2ccccc2)c(SCC(=O)NC(C)(C)C)nc1=O
AC50 (Cytochrome P450 2C19): 35.5 µM (inconclusive)
AC50 (Cytochrome P450 2C9): 20 µM (inconclusive)

CCC(CC)C(=O)Nc1cccc(C(=O)Nc2ccc(OC)cc2[N+](=O)[O-])c1
AC50 (Cytochrome P450 2C19): 0.316 µM (inconclusive)
AC50 (Cytochrome P450 2C9): 0.891 µM (inconclusive)

C=CCn1c(C)nnc1SCC(=O)Nc1nc(C)c(C(=O)N(C)C)s1
EC50 [4]: > 195 µM (not active)

O=S(=O)(Nc1cccc(-n2cnnn2)c1)c1cc(Cl)ccc1Cl
EC50 [4]: > 195 µM (not active)

CSc1ccccc1C(=O)N1CCN(c2ncccn2)CC1
EC50 [4]: > 195 µM (not active)

O=C(O)CCC1(C(=O)O)OCCc2ccccc21 (stereo not drawn)
EC50 [4]: > 195 µM (not active)

Cc1nccn1Cc1cccc2ccccc12
EC50 [4]: > 195 µM (not active)

O=S(=O)(c1ccccc1)N1CCCC(c2nc(O)c3nnn(Cc4ccc5c(c4)OCCO5)c3n2)C1 (stereo not drawn)
CC50 [3]: 16.9 µM (active)

Fc1cc(F)cc(-c2oncc2-c2nnnn2-c2ccccc2)c1
EC50 [4]: > 195 µM (not active)

COc1ccc(CNC(=O)COc2cc3c(c4oc(=O)cc(C)c24)CCC(C)(C)O3)cc1OC
CC50 [3]: > 50 µM (active)

CCCC[C@@H]1C[C@H]1C(NC(=O)c1cccnc1)c1ccc(Cl)cc1 (stereo partly drawn)
AC50 (Cytochrome P450 2D6): 25.1 µM (inconclusive)

Cn1nc(-c2ccccc2)c(C(=O)Nc2ccc(Cl)cc2)c1Cl
AC50 (Cytochrome P450 2C19): 2 µM (inconclusive)
AC50 (Cytochrome P450 2C9): 0.141 µM (inconclusive)

COC(=O)C(c1ccccc1)C1(O)CC(C)N(C)CC1C (stereo not drawn)
EC50 [4]: > 195 µM (not active)

CC[C@@H](C)[C@H](NC(=O)Cc1c(C)c2cc3c(C)c(C)oc3c(C)c2oc1=O)C(=O)O
EC50 [4]: > 195 µM (not active)

CC(C)N(Cc1ccccc1)C(=O)COC(=O)/C=C/c1cnc2ccccc2n1
EC50 [1]: 23 µM (active)

CN1CCN(c2ccc([N+](=O)[O-])cc2NC(=O)c2ccccc2Cl)CC1
AC50 (Cytochrome P450 2D6): 17.8 µM (inconclusive)

Cc1ccc(NC(=O)CN2C(=O)N/C(=C/c3ccc(C)o3)C2=O)cc1
AC50 (Cytochrome P450 2C9): 14.1 µM (inconclusive)

Cc1cc(C)nc(SCc2nnc(SCC(N)=O)n2Cc2ccco2)n1
AC50 (Cytochrome P450 2C9): 3.55 µM (inconclusive)

COc1cccc(CN2CCN(C(=O)c3ccco3)CC2)c1OC
IC50 [2]: 163 µM (active)

CCOc1cc(/C=N/NC(=O)c2cc(-c3ccccc3)nc3ccccc23)ccc1O
CC50 [3]: 31.8 µM (active)

Oc1ccc(/C=N/NC(=S)N2CCOCC2)cc1
IC50 [2]: 63.7 µM (active)

C/C(=N\NC(=O)c1nnn(-c2nonc2N)c1C(C)C)c1cc(C)sc1C
CC50 [3]: > 50 µM (active)

CSC1=NN(c2ccccc2)CN(c2ccccc2)N1C
IC50 [2]: 75.6 µM (active)

O=c1c(-c2ccccc2Cl)c[nH]n1-c1ccccc1
IC50 [2]: 97.4 µM (active)

CC(/C=N/n1c(S)nnc1-c1ccco1)=C\c1ccccc1
IC50 [2]: 108 µM (active)

c1ccc2oc(C3=NCCN3)cc2c1
AC50 (Cytochrome P450 2D6): 39.8 µM (inconclusive)

C[C@H](N)C(=O)OC(C)(C)Cc1ccc(Cl)cc1 [(S)-ALAPROCLATE]
AC50 (Cytochrome P450 2C9): 39.8 µM (inconclusive)
